# Article PMC3325260, “Label-Free Phenotypic Profiling Identified D-Luciferin as a GPR35 Agonist” (PLoS ONE, 2012)
# Like-named read-outs stand apart in the source and are kept apart here.
# What was measured:
# [1] = tested on: ERK1/2 phosphorylation in HT-29 cells; test: ERK phosphorylation, Western blot; assay type: cell-based, human; conditions: for effect on the D-luciferin-induced ERK phosphorylation: 5 min after 32 µM D-luciferin, antagonist at different doses
# Source text: Since ligand-directed functional selectivity or biased agonism is quite common to many, if not all, GPCRs, we next examined the activity of D-luciferin using ERK phosphorylation, receptor internalization and Tango β-arrestin translocation assays. ERK phosphorylation is a hallmark of the activation and signaling of many GPCRs including GPR35 [20].
# The phosphorylated ERK and total ERK were blotted, and actin was used as control. Representative images obtained from 2 independent measurements were used.
# The p44/42 MAP kinases were examined using Western blotting. Whole cell lysates were collected after the cells were treated with a compound or DMSO for 1 hr. Equivalent gel loading was confirmed by probing with anti-actin body. The total ERK1/2 and phosphorylated ERK1/2 were blotted using respective antibodies.
# [2] = target: T1, endogenous GPR35 in HT-29 cells (Homo sapiens, UniProt Q9HC97); test: DMR antagonist assay (antagonist pre-treatment, then agonist); assay type: cell-based; parameters: endogenous in cells; host or cells: HT-29; conditions: for IC50: 5 min pre-stimulation with antagonist, then D-luciferin at 32 µM, n = 4, read-out: apparent IC50 of blocking the DMR induced by D-luciferin
# T1 sequence (Q9HC97 whole entry): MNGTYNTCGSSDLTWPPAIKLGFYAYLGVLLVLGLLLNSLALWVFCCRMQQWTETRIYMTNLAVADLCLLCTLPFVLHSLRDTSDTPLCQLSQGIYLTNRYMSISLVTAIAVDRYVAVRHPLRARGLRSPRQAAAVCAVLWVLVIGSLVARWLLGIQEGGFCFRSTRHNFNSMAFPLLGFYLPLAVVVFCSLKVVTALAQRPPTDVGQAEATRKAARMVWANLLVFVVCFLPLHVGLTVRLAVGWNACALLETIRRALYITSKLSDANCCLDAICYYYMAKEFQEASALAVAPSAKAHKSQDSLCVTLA
# Procedure: (§1) Epic® is a wavelength interrogation reader system tailored for resonant waveguide grating biosensors in microtiter plates. This system consists of a temperature-control unit (26°C), an optical detection unit, and an on-board liquid handling unit with robotics. The detection unit is centered on integrated fiber optics, and enables kinetic measures of cellular responses with a time interval of ∼15 sec. Cells were directly seeded in Epic® plates and cultured overnight to form confluent monolayer in the cell culture medium. The cell seeding density was 32, 000 cells per well, unless specifically mentioned. After being washed twice, the cells were maintained with HBSS (1× Hanks balanced salte buffer, 10 mM Hepes-KOH, pH 7.1) and further incubated inside the system for 1 hr. […] The assay vehicle containing equal amount of DMSO (dimethyl sulfoxide) was used as a control. All ligand-induced DMR were background corrected.
# [3] = target: T1, endogenous GPR35 in HT-29 cells; parameters: endogenous in cells; host or cells: HT-29; method as in PMID 21950657; conditions: cited from earlier work
# [4] = target: T1, endogenous GPR35 in HT-29 cells; parameters: endogenous in cells; host or cells: HT-29; method as in PMID 21950657; conditions: up to 64 µM; cited from earlier work
# [5] = target: T1, endogenous GPR35 in HT-29 cells
# Procedure: All data represent mean ± s.d. from 2 independent measurements, each in duplicate (n = 4).
# as §1, with “All DMR assays were performed using Epic® system (Corning Inc.). Epic® is” for “Epic® is”
# [6] = target: T1, endogenous GPR35 in HT-29 cells; test: cell-based
# Procedure: as §1, with “All DMR assays were performed using Epic® system (Corning Inc.). Epic® is” for “Epic® is”
# [7] = tested on: purified luciferase enzyme; conditions: binding to purified luciferase enzyme; cited from earlier work
# [8] = target: T2, human GPR35 in Tango GPR35-bla U2OS cells (Homo sapiens, UniProt Q9HC97)
# T2 sequence (Q9HC97 whole entry): as above
# [9] = target: T1, endogenous GPR35 in HT-29 cells; test: DMR agonist assay in native HT-29 cells; assay type: cell-based; parameters: endogenous in cells; host or cells: HT-29; conditions: for maximal P-DMR amplitude: HT-29 cells, picometer shift of resonant wavelength, n = 36; for DMR response of the compound alone: HT-29, up to 64 µM
# Source text: First, multiple DMR assays were employed to characterize the pharmacology of D-luciferin in HT-29 cells, a native cell line endogenously expressing GPR35 [18]. […] Second, D-luciferin-induced internalization of endogenous GPR35 in HT-29 cells was examined. Third, D-luciferin-induced ERK phosphorylation in the absence and presence of GPR35 antagonists was examined in HT-29 cells. Fourth, Tango β-arrestin translocation assay was finally employed to examine the agonism of D-luciferin to cause β-arrestin translocation in an engineered cell line.
# as §1, with “All DMR assays were performed using Epic® system (Corning Inc.). Epic® is” for “Epic® is”
# [10] = target: T1, endogenous GPR35 in HT-29 cells; conditions: 32 µM, 1 hr
# Source text: Representative images obtained from 2 independent measurements were used.
# [11] = target: T2, human GPR35 in Tango GPR35-bla U2OS cells; test: cell-based; conditions: read-out: maximal response relative to the zaprinast maximal response
compound,measurement,setting,value
Cc1c(C(=O)O)sc2c(Br)csc12 [YE210],ERK phosphorylation,"[1]; 1 µM, 30 min after treatment",led to ERK phosphorylation
CC(/C=C1\SC(=S)N(CCCC(=O)Nc2ccc(C(=O)O)c(O)c2)C1=O)=C\c1ccccc1 [ML145],effect on the D-luciferin-induced ERK phosphorylation,[1],dose-dependently attenuated
"COC(=O)c1cnn(-c2ccc(F)cc2F)c1C=NNC(=S)NC(C)(C)C [SPB05142, methyl-5-[(tert-butylcarbamothioylhydrazinylidene)-methyl]-1-(2,4-difluorophenyl)-pyrazole-4-carboxylate]",IC50,[2],1.5 ± 0.2 µM
same,D-luciferin DMR in presence of antagonist at the two highest doses,"[2]; SPB05142 at 16 and 32 µM, D-luciferin 32 µM",small but detectable negative DMR signal
same,blockade of the DMR induced by zaprinast,[3],almost completely blocked
same,ERK phosphorylation by compound alone,[1]; 25 µM,weak but detectable ERK phosphorylation
same,effect on the D-luciferin-induced ERK phosphorylation,[1],dose-dependently attenuated
same,DMR response of the compound alone,[4],did not lead to any detectable DMR
O=C(O)c1cc2ccccc2c(Cc2c(O)c(C(=O)O)cc3ccccc23)c1O [pamoic acid],ERK phosphorylation,"[1]; 1 µM, 30 min after treatment",much lower ERK phosphorylation
"O=C(O)[C@H]1CSC(c2nc3ccc(O)cc3s2)=N1 [D-luciferin, (S)-2-(6′-hydroxy-2′-benzothiazolyl)thiazoline-4-carboxylic acid]",effect on the potency of pamoic acid in DMR co-stimulation,"[5]; D-luciferin at different fixed doses, up to 50 µM",did not alter the potency
same,effect on DMR of pamoic acid at 200 nM (saturating concentration),[5]; high doses of D-luciferin,reduced the DMR in a dose-dependent manner
same,IC50,[6],6.8 ± 0.7 µM
same,Km,[7],16 µM
same,"effect on the maximal response of zaprinast, Tango co-stimulation",[8]; 100 µM D-luciferin,only slightly suppressed
same,"effect on the maximal response of zaprinast, Tango co-stimulation",[8]; 1 mM D-luciferin,suppressed the maximal response
same,"effect on the potency of zaprinast, Tango co-stimulation",[8]; D-luciferin at 100 µM and 1 mM,little impact
same,maximal P-DMR amplitude,[9],198±12 pm
same,time of maximum ERK phosphorylation after stimulation,[1]; 32 µM D-luciferin,2 min
same,ERK phosphorylation,[1]; 32 µM D-luciferin for different times,led to phosphorylation of ERK in a time-dependent manner
same,internalization of endogenous GPR35,[10],remarked internalization
same,Emax,[11],20%
COC(=O)c1cnn(-c2ccc(F)cc2F)c1/C=N/NC(=S)Nc1ccccc1 [SPB05143],IC50,[2],2.6 ± 0.3 µM
same,DMR response of the compound alone,[9],little response
COC(=O)c1cnn(-c2ccc(F)cc2F)c1/C=N/NC(N)=S [SPB05140],IC50,[2],5 ± 0.9 µM
same,DMR response of the compound alone,[9],little response
CCCOc1ccccc1-c1nc2nn[nH]c2c(=O)[nH]1 [zaprinast],maximal P-DMR amplitude,[9],276±17 pm
same,ERK phosphorylation,"[1]; 1 µM, 30 min after treatment",led to ERK phosphorylation
